Laboratory results from paper doi:10.1101/2025.10.23.684218v2, “Development of a dual chemical probe for the USP16 and HDAC6 zinc-finger ubiquitin-binding domain” (biorxiv, 2025).
Where two headings read alike, the source gives them in different places.

What was measured:
Experiment in all cases: biochemical
Design in all cases: SPR, steady-state binding to immobilised biotinylated UBD proteins
USP51 = target: T1, USP51 (Homo sapiens, UniProt Q70EK9)
T1 construct: UBD, residues 176-305
T1 sequence (Q70EK9 1-711): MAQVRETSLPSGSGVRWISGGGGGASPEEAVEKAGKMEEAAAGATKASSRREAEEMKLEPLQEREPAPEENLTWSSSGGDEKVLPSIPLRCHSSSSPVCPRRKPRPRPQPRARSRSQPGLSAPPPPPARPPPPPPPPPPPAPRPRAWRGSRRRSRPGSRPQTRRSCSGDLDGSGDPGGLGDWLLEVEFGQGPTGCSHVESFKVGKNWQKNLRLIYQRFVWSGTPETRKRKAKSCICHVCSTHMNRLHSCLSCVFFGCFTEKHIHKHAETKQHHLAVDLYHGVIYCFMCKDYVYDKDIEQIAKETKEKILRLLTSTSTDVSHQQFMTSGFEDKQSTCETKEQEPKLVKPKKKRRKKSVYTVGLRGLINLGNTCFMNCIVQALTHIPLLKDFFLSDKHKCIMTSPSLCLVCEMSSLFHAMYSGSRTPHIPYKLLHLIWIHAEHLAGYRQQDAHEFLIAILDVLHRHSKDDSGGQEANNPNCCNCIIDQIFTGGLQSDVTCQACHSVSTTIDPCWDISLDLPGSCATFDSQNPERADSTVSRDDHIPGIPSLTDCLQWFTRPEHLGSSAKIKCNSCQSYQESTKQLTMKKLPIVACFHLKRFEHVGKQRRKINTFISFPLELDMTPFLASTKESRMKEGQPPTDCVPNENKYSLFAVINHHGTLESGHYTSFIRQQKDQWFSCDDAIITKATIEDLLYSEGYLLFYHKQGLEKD

USP3 = target: T2, USP3 (Homo sapiens, UniProt Q9Y6I4)
T2 sequence (Q9Y6I4 1-520): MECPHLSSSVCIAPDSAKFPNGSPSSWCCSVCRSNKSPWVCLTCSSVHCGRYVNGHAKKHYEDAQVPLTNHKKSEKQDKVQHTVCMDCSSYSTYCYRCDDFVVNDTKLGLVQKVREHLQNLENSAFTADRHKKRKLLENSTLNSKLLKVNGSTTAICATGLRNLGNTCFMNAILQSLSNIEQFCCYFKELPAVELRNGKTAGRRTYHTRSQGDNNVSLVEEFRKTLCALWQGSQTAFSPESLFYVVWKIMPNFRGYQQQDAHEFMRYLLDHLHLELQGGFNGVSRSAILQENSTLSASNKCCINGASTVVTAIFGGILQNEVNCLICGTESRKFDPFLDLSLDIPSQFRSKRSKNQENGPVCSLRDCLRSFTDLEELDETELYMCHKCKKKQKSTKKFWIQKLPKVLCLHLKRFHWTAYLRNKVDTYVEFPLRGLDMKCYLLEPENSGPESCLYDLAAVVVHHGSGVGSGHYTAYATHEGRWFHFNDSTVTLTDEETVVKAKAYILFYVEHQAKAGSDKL

USP5 = target: T3, USP5 (Homo sapiens, UniProt P45974)
T3 construct: UBD, residues 171-290
T3 sequence (P45974 1-858): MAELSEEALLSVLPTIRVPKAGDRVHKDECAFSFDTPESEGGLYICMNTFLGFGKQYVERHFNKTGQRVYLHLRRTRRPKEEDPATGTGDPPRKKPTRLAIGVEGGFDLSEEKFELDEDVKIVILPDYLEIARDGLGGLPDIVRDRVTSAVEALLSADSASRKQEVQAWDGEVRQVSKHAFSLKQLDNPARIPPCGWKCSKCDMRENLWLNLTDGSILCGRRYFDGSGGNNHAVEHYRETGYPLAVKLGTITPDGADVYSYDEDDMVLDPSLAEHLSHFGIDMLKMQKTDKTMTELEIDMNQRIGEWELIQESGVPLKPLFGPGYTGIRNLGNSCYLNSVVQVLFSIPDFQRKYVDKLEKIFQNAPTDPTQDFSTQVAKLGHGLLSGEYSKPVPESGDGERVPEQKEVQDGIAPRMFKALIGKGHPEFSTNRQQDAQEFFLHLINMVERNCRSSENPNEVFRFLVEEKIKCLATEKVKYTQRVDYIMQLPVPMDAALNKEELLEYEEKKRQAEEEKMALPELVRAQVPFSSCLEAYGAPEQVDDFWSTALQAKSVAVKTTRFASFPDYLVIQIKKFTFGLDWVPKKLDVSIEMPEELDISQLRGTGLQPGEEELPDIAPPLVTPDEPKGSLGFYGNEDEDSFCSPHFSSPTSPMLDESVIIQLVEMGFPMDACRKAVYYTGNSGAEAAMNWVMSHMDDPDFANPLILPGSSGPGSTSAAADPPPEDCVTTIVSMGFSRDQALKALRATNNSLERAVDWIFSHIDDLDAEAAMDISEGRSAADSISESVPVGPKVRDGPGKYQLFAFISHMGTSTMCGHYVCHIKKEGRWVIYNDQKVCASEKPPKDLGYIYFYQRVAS

[1] = read-out: Probe KD (nM) SGC-UBD1031
[2] = read-out: Negative Control KD (nM) SGC-UBD1031N

| Compound | Kd (USP51; [1]) | Kd (USP3; [1]) | Kd (USP5; [1]) | Kd (USP51; [2]) | Kd (USP3; [2]) | Kd (USP5; [2]) |
| --- | --- | --- | --- | --- | --- | --- |
| C[C@H](NC(=O)Cn1c(CCC(=O)O)nc2c(Cl)cccc2c1=O)c1c(F)cccc1F [compound 15, (S)-3-(8-chloro-3-(2-((1-(2,6-difluorophenyl)ethyl)amino)-2-oxoethyl)-4-oxo-3,4-dihydroquinazolin-2-yl)propanoic acid] | > 10000 nM | > 10000 nM | 2600 ± 1400 nM |  |  |  |
| C[C@@H](NC(=O)Cn1c(CCC(=O)O)nc2c(Cl)cccc2c1=O)c1c(F)cccc1F [compound 16, (R)-3-(8-chloro-3-(2-((1-(2,6-difluorophenyl)ethyl)amino)-2-oxoethyl)-4-oxo-3,4-dihydroquinazolin-2-yl)propanoic acid] |  |  |  | > 10000 nM | 8700 ± 1800 nM | > 10000 nM |
